Where two headings read alike, the source gives them in different places.
What was measured:
purified D-carbamoylase = assay: Cofactor dependence: inactivation by complexing agents and sulfhydryl reagents, reactivation by metal ions; type: biochemical, Arthrobacter crystallopoietes DSM 20117; conditions: for inactivation of the enzyme by complexing agent: 10 mM, incubation at 25° C., 8-HQSA: within less than two hours
Procedure: (§1) The homogeneously purified D-carbamoylase with the His-tag and ttg start codon (pMW1 —FIG. 5) was used for characterization of the enzyme obtained in this way. The enzyme was present in 0.1 M KPB pH 8.0.
In order to be able to differentiate the inactivation by the complexing agent from the thermal inactivation, an aliquot of the enzyme solution was co-incubated without 8-HQSA and the activity was monitored with respect to time. It was concluded that to reactivate the enzyme, the 8-HQSA had to be removed from the enzyme by gel filtration, and incubation had to be carried out in the presence of 2 mM metal ions. However, neither Cu^2+, Co^2+, Mn^2+, Mg^2+, Fe^2+ nor Zn^2+ led to a reactivation of the enzyme.

[1] = molecular target: D-carbamoylase from Arthrobacter crystallopoietes DSM 20117 (Crystallibacter crystallopoietes, UniProt A0A1H1C375); assay: Substrate specificity of the purified D-carbamoylase (relative conversion of carbamoyl substrates); type: biochemical; conditions: for Rel. act. / conversion of substrate (in words): 30° C.; for Rel. act.: 0.1 M potassium phosphate buffer pH 8.0, 20 mM isomer mixture or 10 mM pure isomer, D,L-Carbamoyl-phenylalanine set at 100% (2 U/mg); for conversion of substrate (in words): assay conditions of substrate spectrum, pH 8.0
Procedure: as §1
To determine the substrate spectrum, the enzyme was incubated at a reaction temperature of 30° C. with the particular substrate in the presence of 0.1 M potassium phosphate buffer pH 8.0. To ensure the same concentration of the D-isomer, if the substrate was present as an isomer mixture a concentration of 20 mM was established; if the substrate was present as a pure isomer a concentration of 10 mM was established.

[2] = substrate: NC(=O)N[C@H](Cc1c[nH]c2ccccc12)C(=O)O; assay: Determination of kinetic parameters (Km, vmax) of the D-carbamoylase; type: biochemical, Arthrobacter crystallopoietes DSM 20117; conditions: other: Michaelis-Menten kinetics, Enzymfit program; pH 8.0
Procedure: as §1
For determination of Vmax and Km, the rate of reaction v was plotted as a function of the substrate concentration. The calculation of the kinetic parameters was carried out via the Enzymfit program (developed at the Institute of Bioprocess Technology, University of Stuttgart). […] The reaction can be described here by Michaelis-Menten kinetics (see equation 1). [formula]

[3] = Determination of the optimum pH of the purified D-carbamoylase; type: biochemical; conditions: pH range 6.5 to 9.0, DL-C-phenylalanine, 30° C., 100 mM buffers
Procedure: To determine the optimum pH of the purified D-carbamoylase, conversions were carried out at various pH values in a range from 6.5 to 9.0 with DL-C-phenylalanine as the substrate at 30° C. In order to be able to rule out concentration effects, the buffer concentration of all the buffers used (Tris, potassium phosphate and Tris-glycine) was adjusted to a value of 100 mM. The activity maximum of the D-carbamoylase was at pH 8.

Molecule: O=S(=O)(O)c1ccc(O)c2ncccc12 [8-hydroxyquinolinesulfonic acid]
- inactivation of the enzyme by complexing agent (purified D-carbamoylase): compete inhibition

Molecule: NC(=O)NC(CO)C(=O)O (racemic) [D,L-Carbamoyl-serine]
- Rel. act. [1]: 35%

Molecule: CSCCC(NC(N)=O)C(=O)O (racemic) [D,L-Carbamoyl-methionine]
- Rel. act. [1]: 13%

Molecule: O=C(O)c1ccccc1[N+](=O)[O-] [2-nitrobenzoate]
- inactivation of the D-carbamoylase by sulfhydryl reagents (purified D-carbamoylase; 1 mM): complete inactivation

Molecule: CC(C)(C)C(NC(N)=O)C(=O)O (racemic) [D,L-Carbamoyl-tert-leucine]
- Rel. act. [1]: 18%

Molecule: O=C(O)CN(CCN(CC(=O)O)CC(=O)O)CC(=O)O [EDTA]
- inactivation of the enzyme by complexing agent (purified D-carbamoylase): no inactivation

Molecule: NC(=O)N[C@@H](Cc1c[nH]c2ccccc12)C(=O)O [L-carbamoyl-tryptophan]
- conversion of substrate (in words) [1]: not converted

Molecule: CC(C)C(NC(N)=O)C(=O)O (racemic) [D,L-Carbamoyl-valine]
- Rel. act. [1]: 31%

Molecule: CC(C)[C@H](NC(N)=O)C(=O)O [L-carbamoyl-valine]
- conversion of substrate (in words) [1]: not converted

Molecule: β-Ureido-propionate
- Rel. act. [1]: 0%
- conversion of substrate (in words) [1]: not converted

Molecule: C[C@@H](NC(N)=O)C(=O)O [D-Carbamoyl-alanine]
- Rel. act. [1]: 510%
- conversion relative to all other substrates ([1]; compared with all other substrates of table 5): at least five times better

Molecule: NC(=O)N[C@H](Cc1c[nH]c2ccccc12)C(=O)O [D-Carbamoyl-tryptophan]
- Rel. act. [1]: 80%

Molecule: O=C(O)c1cc[c]([Hg][Cl])cc1 [para-chloro-mercury benzoate]
- inactivation of the D-carbamoylase by sulfhydryl reagents (purified D-carbamoylase; 1 mM): complete inactivation

Molecule: O=C(O)CI [iodine acetate]
- inactivation of the D-carbamoylase by sulfhydryl reagents (purified D-carbamoylase): complete inactivation

B1: D-carbamoylase from Arthrobacter crystallopoietes DSM 20117 (Crystallibacter crystallopoietes) (protein)
chain: MAKNLMLAVAQVGGIDSSESRPEVVARLIALLEEAASQGAELVVFPELTLTTFFPRTWFEEGDFEEYFDKSMPNDDVAPLFERAKDLGVGFYLGYAELTSDEKRYNTSILVNKHGDIVGKYRKMHLPGHADNREGLPNQHLEKKYFREGDLGFGVFDFHGVQVGMCLCNDRRWPEVYRSLALQGAELVVLGYNTPDFVPGWQEEPHAKMFTHLLSLQAGAYQNSVFVAAAGKSGFEDGHHMIGGSAVAAPSGEILAKAAGEGDEVVVVKADIDMGKPYKESVFDFAAHRRPDAYGIIAERKGRGAPLPVPFNVND
- Km [2]: 7.5 mM
- Vmax [2]: 2.4 U/mg

B2: D-carbamoylase: homogeneously purified recombinant D-carbamoylase from Arthrobacter crystallopoietes DSM 20117 (SEQ ID NO: 2) (protein)
chain: MAKNLMLAVAQVGGIDSSESRPEVVARLIALLEEAASQGAELVVFPELTLTTFFPRTWFEEGDFEEYFDKSMPNDDVAPLFERAKDLGVGFYLGYAELTSDEKRYNTSILVNKHGDIVGKYRKMHLPGHADNREGLPNQHLEKKYFREGDLGFGVFDFHGVQVGMCLCNDRRWPEVYRSLALQGAELVVLGYNTPDFVPGWQEEPHAKMFTHLLSLQAGAYQNSVFVAAAGKSGFEDGHHMIGGSAVAAPSGEILAKAAGEGDEVVVVKADIDMGKPYKESVFDFAAHRRPDAYGIIAERKGRGAPLPVPFNVND
modifications: OTHER INFORMATION: … DNA
- activity maximum (optimum pH) [3]: 8
